Laboratory results: patent US20260283988A1, “FERROPTOSIS INHIBITORS” (priority 2023, published 2026)
pIC50: −log10 of the molar value. Where two headings read alike, the source gives them in different places.

How the values were obtained:
[1] = system: HT-1080-derived spheroids; assay: 3D spheroid formation and imaging (roundness); type: cell-based, Human; settings: 200 nM RSL3; 2 μM Fer-1; 6 μM Seratrodast, 48 h
Method: Over a period of 48 h spheroids were formed and subsequently treated with RSL3, and Ferrostatin-1 or Seratrodast. […] Images were acquired using an Operetta high-content imaging system (PerkinElmer) and analyses were conducted with the Columbus software (PerkinElmer). For analysis, spheroids were detected as “Image region” and morphology properties were calculated (roundness).

[2] = Cell-free BODIPY assay with AAPH; type: biochemical; settings: 25 μM compound; 7.5 mM AAPH
Method: As a control, the same amount of DMSO was diluted in 150 μl PBS. […] For the non-oxidized control, one sample was prepared as DMSO only without AAPH. All three solutions were mixed equally and incubated for 30 min at room temperature in the dark.

HT-1080 [3] = assay: Ferroptosis inhibition, cell viability assay (CellTiter-Glo); type: cell-based, Human; settings: for pIC50: read-out: IC50 (Ferroptosis inhibition); for cellular efficacy/toxicity window: cytotoxic IC50 versus ferroptosis inhibition IC50, 1080 min
Method: Cell lines: Human fibrosarcoma cell line HT-1080 and immortalized Mouse Embryonic Fibroblasts (MEF). MEFs were a gift from Daniel Krappmann, HT-1080 were purchased from ATCC and both cell lines were grown in Dulbecco's Modified Eagle's medium (Thermo Fisher Scientific, 41966-029) supplemented with 10% fetal bovine serum (FBS, Thermo Fisher Scientific), 1% Penicillin-Streptomycin (Thermo Fisher Scientific) and 1% nonessential amino acids (MEM NEAA, Thermo Fisher Scientific). Cells were grown at 37° C. and 5% CO2.
HT-1080 were seeded into 384-well plates (CulturPlates, PerkinElmer) with a density of 750 cells per well. After 24 h of growth, cells were treated with 10 or 12-point serial dilutions of compounds in indicated concentrations for 18 h. Viability was detected by using CellTiter-Glo® 2.0 Regent (Promega) according to the manufacturer's instruction and luminescence was read out in an EnVison 2104 Multilabel plate reader (PerkinElmer).

[4] = Cytotoxicity, cell viability assay; type: cell-based, Human; settings: human, ht-1080 cells, * = signal quenching at higher concentration, toxicity might be less than indicated; read-out: cytotoxic IC50
Method: (§1) After 24 h of growth, cells were treated with 10 or 12-point serial dilutions of compounds in indicated concentrations for 18 h.

HT-1080 [5] = assay: Apoptosis assay, Staurosporine-induced Caspase 3/7 activity (Caspase-Glo 3/7); type: cell-based, Human
Method: For detecting apoptosis, HT-1080 were treated with Staurosporine before addition of Seratrodast or zVAD-FMK. Caspase 3/7 activity was measured 18 hours later via Caspase-Glo® 3/7 Assay Reagent (Promega) according to the manufacturer's instruction. Cells were incubated for 45 min at room temperature and luminescence was measured.

[6] = system: Mouse Embryonic Fibroblasts (MEF); assay: Necroptosis assay, TNFα + zVAD-FMK + LCL161, cell viability; type: cell-based
Method: For detecting necroptosis, MEF were treated with TNFα, zVAD-FMK and LCL161 before addition of Seratrodast or Necrostatin-1. Cell viability was measured after 18 hours by adding CellTiter-Glo® 2.0 Reagent (Promega) according to the manufacturer's instruction and luminescence was read out.

HT-1080 [7] = assay: TBARS assay (MDA levels); type: cell-based, Human; settings: 250 nM RSL3; 6 μM Seratrodast, 2.5 h
Method: 2 million HT-1080 cells were seeded into 150 mm dishes and grown for 48 hours. Ferroptosis was induced with RSL3 for 2.5 hours and cells were co-treated with Ferrostatin-1 or Seratrodast. Cells were detached by 0.05% Trypsin-EDTA (Thermo Fisher Scientific) and cell number was adjusted to the sample with the lowest cell count. For measuring MDA levels, TBARS (TCA Method) Assay Kit (Cayman Chemical, 700870) was used according to manufacturer's instruction. Fluorescence was detected at 530 nm/550 nm in an EnVision 2104 Multilabel plate reader (PerkinElmer).

HT-1080 [8] = assay: Flow cytometry, BODIPY 581/591 C11 lipid peroxidation sensor; type: cell-based, Human; settings: 200 nM RSL3; 6 μM Seratrodast, 2.5 h
Method: (§2) HT1080 cells were grown in 6-well plates (200,000 cells per well) and incubated for 24 h. For staining with BODIPY 581/591 C11 (Thermo Fisher Scientific), cells were treated with RSL3, and Ferrostatin-1 or Seratrodast for 2 h, then BODIPY was added into the wells to a final concentration of 2 μM. After 30 min incubation, cells were detached using Trypsin and washed two times with PBS. Between the wash steps, cells were centrifuged at 500×g for 5 minutes. After the final washing step, cell pellets were resuspended in 300 μl PBS and 10,000 events per condition were analyzed in the BL-1 channel of an Attune acoustic flow cytometer (Applied Biosystems). For detection of 4-Hydroxynonenal (4-HNE), HT-1080 were induced with RSL3, and co-treated with Ferrostatin-1 or Seratrodast for 2 h before they were detached using Trypsin. Cell pellets were incubated in 10% normal goat serum (Thermo Fisher Scientific) for 30 min on ice. Subsequently, cells were incubated with anti-4-HNE antibody (1:50 dilution in 1% BSA in PBS, ab46545, Abcam) for 1 h on ice. […] For flow cytometry, cells were collected in 300 μl PBS and 10,000 events per condition were analyzed in an Attune acoustic flow cytometer (Applied Biosystems), using the BL-1 channel. FlowJo™ v10.8.1 (BD Life Sciences) was used for creating histograms and analyzing fluorescence intensity.

HT-1080 [9] = assay: Flow cytometry, 4-Hydroxynonenal (4-HNE) immunostaining; type: cell-based, Human; settings: 300 nM RSL3; 6 μM Seratrodast, 2 h
Method: as §2

HT-1080 [10] = assay: Cytotoxicity, cell viability assay; type: cell-based, Human; settings: * = signal quenching at higher concentration, toxicity might be less than indicated; 1080 min; read-out: cytotoxic IC50
Method: as §1

[11] = Homo sapiens, HT-1080, based on the assays of example 1
[12] = based on the assays of example 1

## CCOC(=O)c1ccc(NC2CCCCC2)c(N)c1 [Ferrostatin-1]
[1]
  inhibition of ferroptosis in 3D spheroid model (spheroid roundness): fully inhibited ferroptosis-based spheroid destruction
[2]
  oxidative fluorescence induced by AAPH (cell-free C11-BODIPY): significantly reduced oxidative fluorescence

## CC1=C(C)C(=O)C(C(CCCCCC(=O)O)c2ccccc2)=C(C)C1=O (stereo not drawn) [iQFerr01, Seratrodast, reference compound]
HT-1080 [3]; 100 nM RSL3 or 1.5 μM IKE for 18 h
  suppression of ferroptosis (cell viability): dose-dependently suppresses ferroptosis
HT-1080 [3]; 6 μM Seratrodast, 2 μM Fer-1, 18 h
  inhibition of ferroptosis induced by RSL3, IKE, FINO2 and FIN56: able to suppress ferroptosis induced by all four FINs
HT-1080 [3]; [11]
  pIC50: 6.54
HT-1080 [3]
  cellular efficacy/toxicity window: 200-fold
[4]
  CC50 at 18 h: 57900 nM
HT-1080 [5]
  Apoptosis inhibition: no
HT-1080 [5]; 6 μM, 1 μM Staurosporine, 18 h
  inhibition of apoptosis: does not inhibit apoptosis
[6]
  Necroptosis inhibition: no
[6]; 6 μM, 20 ng/ml TNFα + 10 μM Z-VAD-FMK + 10 μM LCL161 for 18 h
  inhibition of necroptosis: does not inhibit necroptosis
[1]
  inhibition of ferroptosis in 3D spheroid model (spheroid roundness): fully inhibited ferroptosis-based spheroid destruction
[2]
  oxidative fluorescence induced by AAPH (cell-free C11-BODIPY): significantly reduced oxidative fluorescence
HT-1080 [7]
  RSL3-induced malondialdehyde (MDA) levels: eliminated levels of malondialdehyde
HT-1080 [8]
  RSL3-mediated peroxidation of the C11-BODIPY sensor: largely reduced
HT-1080 [9]
  RSL3-induced 4-hydroxynonenal (4-HNE) levels: reduced

## CC(=O)c1ccc(NC2=C(Cl)C(=O)c3ccccc3C2=O)cc1 [iQFerr02, NQ301]
HT-1080 [3]; [11]
  pIC50: 7.57
HT-1080 [3]
  cellular efficacy/toxicity window: 28-fold
[4]
  CC50 at 18 h: 759 nM
[6]
  Necroptosis inhibition: no

## Cc1ccc(NC2=C(Cl)C(=O)c3ccccc3C2=O)c(C)c1 [iQFerr14, 2-chloro-3-(2,4-dimethylanilino)-1,4-naphtoquinone]
HT-1080 [3]; [12]
  pIC50: 10.47
HT-1080 [3]
  cellular efficacy/toxicity window: 5000-fold
HT-1080 [10]
  CC50: 1000 nM

## CC(=O)Nc1ccc(NC2=CC(=O)c3ccccc3C2=O)cc1 [iQFerr20, N-[4-(1,4-dioxo-1,4-dihydronaphthalen-2-yl-amino)phenyl]acetamide]
HT-1080 [3]; [11]
  pIC50: 8.09
HT-1080 [3]
  cellular efficacy/toxicity window: 1254-fold
[4]
  CC50 at 18 h: 10200 nM
HT-1080 [5]
  Apoptosis inhibition: no
[6]
  Necroptosis inhibition: no

## O=C1C=C(C(c2ccccc2)c2ccccc2)C(=O)c2ccccc21 [iQFerr29, 2-diphenylmethyl-1,4-naphtoquinone]
HT-1080 [3]; [11]
  pIC50: 8.41
HT-1080 [3]
  cellular efficacy/toxicity window: 1277-fold
[4]
  CC50 at 18 h: 4990 nM
[6]
  Necroptosis inhibition: no

## Cc1ccc(NC2=C(Cl)C(=O)c3ccccc3C2=O)c(C)c1 [iQFerr35, 2-chloro-3-[(2,4-dimethylphenyl)amino]-1,4-dihydronaphthalene-1,4-dione]
HT-1080 [3]; [12]
  pIC50: 9.16
HT-1080 [3]
  cellular efficacy/toxicity window: 8051-fold
HT-1080 [10]
  CC50: 5570 nM

## Cc1ccc(N(CCCCCC(=O)O)C2=CC(=O)c3ccccc3C2=O)c(C)c1 [iQFerr38, 6-[(2,4-dimethylphenyl)(1,4-dioxo-1,4-dihydronaphthalen-2-yl)amino]hexanoic acid]
HT-1080 [3]; [11]
  pIC50: 6.67
HT-1080 [3]
  cellular efficacy/toxicity window: 232-fold
[4]
  CC50 at 18 h: 49800 nM
HT-1080 [5]
  Apoptosis inhibition: no
[6]
  Necroptosis inhibition: no

## CC(=O)Nc1ccc(NC2=C(C)C(=O)c3ccccc3C2=O)cc1 [iQFerr39, N-{4-[(3-methyl-1,4-dioxo-1,4-dihydronaphthalen-2-yl)amino]phenyl} acetamide]
HT-1080 [3]; [11]
  pIC50: 7.77
HT-1080 [3]
  cellular efficacy/toxicity window: 2561-fold
[4]
  CC50 at 18 h: 43500 nM
HT-1080 [5]
  Apoptosis inhibition: no
[6]
  Necroptosis inhibition: no

## CC1=C(Nc2ccc(C)cc2C)C(=O)c2ccccc2C1=O [iQFerr41, 2-[(2,4-dimethylphenyl)amino]-3-methyl-1,4-dihydronaphthalene-1,4-dione]
HT-1080 [3]; [11]
  pIC50: 8.54
HT-1080 [3]
  cellular efficacy/toxicity window: 4601-fold
[4]
  CC50 at 18 h: 13400 nM
HT-1080 [5]
  Apoptosis inhibition: no
[6]
  Necroptosis inhibition: no

## Cc1ccc(N(CCCCCC(N)=O)C2=CC(=O)c3ccccc3C2=O)c(C)c1 [iQFerr43, 6-[(2,4-dimethylphenyl)(1,4-dioxo-1,4-dihydronaphthalen-2-yl)amino]hexanamide]
HT-1080 [3]; [11]
  pIC50: 6.94
HT-1080 [3]
  cellular efficacy/toxicity window: 653-fold
[4]
  CC50 at 18 h: 75400 nM
HT-1080 [5]
  Apoptosis inhibition: no
[6]
  Necroptosis inhibition: no

## CC(=O)Nc1ccc(NC2=C(C(F)(F)F)C(=O)c3ccccc3C2=O)cc1 [iQFerr44, N-(4-{[1,4-dioxo-3-(trifluoromethyl)-1,4-dihydronaphthalen-2-yl]amino}phenyl) acetamide]
HT-1080 [3]; [11]
  pIC50: 7.51
HT-1080 [3]
  cellular efficacy/toxicity window: 1901-fold
[4]
  CC50 at 18 h: 58800 nM
[6]
  Necroptosis inhibition: no

## CC1=C(Nc2cc(C)cc(C)c2)C(=O)c2ccccc2C1=O [iQFerr46, 2-[(3,5-dimethylphenyl)amino]-3-methyl-1,4-dihydronaphthalene-1,4-dione]
HT-1080 [3]; [11]
  pIC50: 8.68
HT-1080 [3]
  cellular efficacy/toxicity window: 36758-fold
[4]
  CC50 at 18 h: 77600 nM
HT-1080 [5]
  Apoptosis inhibition: no
[6]
  Necroptosis inhibition: no

## Cc1ccc(NC2=C(C(F)(F)F)C(=O)c3ccccc3C2=O)c(C)c1 [iQFerr47, 2-[(2,4-dimethylphenyl)amino]-3-(trifluoromethyl)-1,4-dihydronaphthalene-1,4-dione]
HT-1080 [3]; [11]
  pIC50: 8.00
HT-1080 [3]
  cellular efficacy/toxicity window: 1458-fold
[4]
  CC50 at 18 h: 14700 nM
HT-1080 [5]
  Apoptosis inhibition: no
[6]
  Necroptosis inhibition: no
